Data: the supplement of paper PMC11451515

Assays:
Conditions in all cases: 48 h
SEM cells [1] = assay: cell viability relative to DMSO control; higher = less cytotoxic
Summary of the method: (§1)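 In 1536-well plates, 5 μl of leukemia cells were seeded per well: 500 cells/well for NOMO1 or SEM and 1000 cells/well for P12-Ichikawa. Each line had first been adapted for at least four passages in each medium. Library compounds in DMSO were pin-dosed at 11 threefold concentrations between 47 μM and 0.79 nM, and CellTiter-Glo One luminescence was read after 48 h at 37°C. Viability is a per-plate percentage relative to DMSO wells, with cell-free wells as background.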

P12-Ichikawa [2] = assay: as above
Summary of the method: as §1

NOMO1 [3] = assay: as above
Summary of the method: as §1

P12-Ichikawa [4] = assay: AUC of viability dose-response curve (% viability x log10 dose units); higher = less sensitive
Summary of the method: (§2)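 Library compounds in DMSO were applied for 48 h at 37°C at 11 threefold doses (47 μM to 0.79 nM) to medium-adapted leukemia cells in 1536-well plates holding 500 or 1000 cells/well. Luminescence from CellTiter-Glo One was normalised plate by plate against DMSO and cell-free wells. Area under the curve came from trapezoidal integration of a log-logistic fit, after scaling curves that rose above full viability and discarding those that failed quality control. The fit had four parameters and used log10 doses.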

NOMO1 [5] = assay: as above
Summary of the method: as §2

SEM cells [6] = assay: as above
Summary of the method: as §2

CC(=O)N(O)CCCCCNC(=O)CCC(=O)N(O)CCCCCNC(=O)CCC(=O)N(O)CCCCCN.C[S+](=O)([O-])O
cell viability [%]
Conditions | NOMO1 [3] | P12-Ichikawa [2] | SEM cells [1]
HPLM + 10% dialyzed FBS, 0.000781 µM | 90.9 | 93.5 | 74.3
HPLM + 10% dialyzed FBS, 0.00234 µM | 83.7 | 76.5 | 86.8
HPLM + 10% dialyzed FBS, 0.00702 µM | 81.8 | 40.7 | 77.7
HPLM + 10% dialyzed FBS, 0.0211 µM | 32.6 | 10.3 | 26.2
HPLM + 10% dialyzed FBS, 0.0632 µM | 34 | 11 | 25.3
HPLM + 10% dialyzed FBS, 0.19 µM | 34.6 | 11.2 | 18.8
HPLM + 10% dialyzed FBS, 0.569 µM | 28.3 | 10.8 | 22.5
HPLM + 10% dialyzed FBS, 1.71 µM | 27.2 | 9.88 | 18.2
HPLM + 10% dialyzed FBS, 5.12 µM | 27.7 | 9.31 | 23.9
HPLM + 10% dialyzed FBS, 15.4 µM | 23.6 | 9.06 | 23.2
HPLM + 10% dialyzed FBS, 46.1 µM | 21.5 | 9.61 | 23.2
RPMI 5 mM glucose + 10% FBS, 0.000781 µM | 88.8 | 98.4 | 96.8
RPMI 5 mM glucose + 10% FBS, 0.00234 µM | 97.4 | 110 | 54.4
RPMI 5 mM glucose + 10% FBS, 0.00702 µM | 115 | 99 | 30.4
RPMI 5 mM glucose + 10% FBS, 0.0211 µM | 45.7 | 99 | 18.5
RPMI 5 mM glucose + 10% FBS, 0.0632 µM | 28.1 | 54.9 | 20.6
RPMI 5 mM glucose + 10% FBS, 0.19 µM | 17.6 | 13.4 | 20.9
RPMI 5 mM glucose + 10% FBS, 0.569 µM | 24.9 | 13.2 | 20.6
RPMI 5 mM glucose + 10% FBS, 1.71 µM | 20.9 | 11.6 | 14.4
RPMI 5 mM glucose + 10% FBS, 5.12 µM | 16.4 | 16.4 | 18.5
RPMI 5 mM glucose + 10% FBS, 15.4 µM | 10.6 | 11.4 | 15.9
RPMI 5 mM glucose + 10% FBS, 46.1 µM | 12.5 | 12.3 | 16.3
RPMI 5 mM glucose + 10% dialyzed FBS, 0.000781 µM | 86 | 97.8 | 81
RPMI 5 mM glucose + 10% dialyzed FBS, 0.00234 µM | 105 | 108 | 82.9
RPMI 5 mM glucose + 10% dialyzed FBS, 0.00702 µM | 113 | 114 | 94.4
RPMI 5 mM glucose + 10% dialyzed FBS, 0.0211 µM | 106 | 99.2 | 30.2
RPMI 5 mM glucose + 10% dialyzed FBS, 0.0632 µM | 79.1 | 79.9 | 25.4
RPMI 5 mM glucose + 10% dialyzed FBS, 0.19 µM | 26.3 | 18.4 | 19.3
RPMI 5 mM glucose + 10% dialyzed FBS, 0.569 µM | 26.4 | 20.7 | 18.7
RPMI 5 mM glucose + 10% dialyzed FBS, 1.71 µM | 21.4 | 16.7 | 20.2
RPMI 5 mM glucose + 10% dialyzed FBS, 5.12 µM | 23.8 | 15.2 | 19.3
RPMI 5 mM glucose + 10% dialyzed FBS, 15.4 µM | 18.2 | 16.1 | 23.6
RPMI 5 mM glucose + 10% dialyzed FBS, 46.1 µM | 17.4 | 22 | 23.7

AUC of viability dose-response curve
Conditions | HPLM + 10% dialyzed FBS | RPMI 5 mM glucose + 10% FBS | RPMI 5 mM glucose + 10% dialyzed FBS
NOMO1 [5] | 204 | 199 | 261
P12-Ichikawa [4] | 115 | 225 | 249

CCC(=O)NC[C@H](Cc1ccc(OCCc2nc(-c3ccccc3)oc2C)cc1)N/C(C)=C\C(=O)c1ccc(C(F)(F)F)cc1
cell viability [%]
Conditions | NOMO1 [3] | P12-Ichikawa [2] | SEM cells [1]
HPLM + 10% dialyzed FBS, 0.000781 µM | 98.9 | 102 | 68.8
HPLM + 10% dialyzed FBS, 0.00234 µM | 104 | 97.6 | 106
HPLM + 10% dialyzed FBS, 0.00702 µM | 101 | 93.8 | 104
HPLM + 10% dialyzed FBS, 0.0211 µM | 122 | 104 | 88.3
HPLM + 10% dialyzed FBS, 0.0632 µM | 114 | 109 | 91
HPLM + 10% dialyzed FBS, 0.19 µM | 130 | 106 | 109
HPLM + 10% dialyzed FBS, 0.569 µM | 96.3 | 91.1 | 4.25
HPLM + 10% dialyzed FBS, 1.71 µM | 104 | 99.1 | 81.6
HPLM + 10% dialyzed FBS, 5.12 µM | 103 | 76 | 82.6
HPLM + 10% dialyzed FBS, 15.4 µM | 54.3 | 35 | 50.4
HPLM + 10% dialyzed FBS, 46.1 µM | 27.1 | 8.82 | 49.3
RPMI 5 mM glucose + 10% FBS, 0.000781 µM | 102 | 95.8 | 83.1
RPMI 5 mM glucose + 10% FBS, 0.00234 µM | 114 | 98 | 97.2
RPMI 5 mM glucose + 10% FBS, 0.00702 µM | 109 | 103 | 120
RPMI 5 mM glucose + 10% FBS, 0.0211 µM | 99.6 | 112 | 105
RPMI 5 mM glucose + 10% FBS, 0.0632 µM | 106 | 106 | 98
RPMI 5 mM glucose + 10% FBS, 0.19 µM | 112 | 110 | 120
RPMI 5 mM glucose + 10% FBS, 0.569 µM | 101 | 77.7 | 4.86
RPMI 5 mM glucose + 10% FBS, 1.71 µM | 109 | 105 | 83.4
RPMI 5 mM glucose + 10% FBS, 5.12 µM | 113 | 66.7 | 99.4
RPMI 5 mM glucose + 10% FBS, 15.4 µM | 62.4 | 50.4 | 51.9
RPMI 5 mM glucose + 10% FBS, 46.1 µM | 19.2 | 7.18 | 67.2
RPMI 5 mM glucose + 10% dialyzed FBS, 0.000781 µM | 97.9 | 98.3 | 60.2
RPMI 5 mM glucose + 10% dialyzed FBS, 0.00234 µM | 113 | 99.4 | 97.7
RPMI 5 mM glucose + 10% dialyzed FBS, 0.00702 µM | 102 | 100 | 113
RPMI 5 mM glucose + 10% dialyzed FBS, 0.0211 µM | 115 | 104 | 118
RPMI 5 mM glucose + 10% dialyzed FBS, 0.0632 µM | 106 | 99.3 | 120
RPMI 5 mM glucose + 10% dialyzed FBS, 0.19 µM | 117 | 99.7 | 109
RPMI 5 mM glucose + 10% dialyzed FBS, 0.569 µM | 107 | 83.6 | 5.19
RPMI 5 mM glucose + 10% dialyzed FBS, 1.71 µM | 107 | 86.8 | 93
RPMI 5 mM glucose + 10% dialyzed FBS, 5.12 µM | 90.8 | 62.1 | 94.5
RPMI 5 mM glucose + 10% dialyzed FBS, 15.4 µM | 105 | 53.3 | 43.9
RPMI 5 mM glucose + 10% dialyzed FBS, 46.1 µM | 43.7 | 11.8 | 65.5

AUC of viability dose-response curve
Conditions | HPLM + 10% dialyzed FBS | RPMI 5 mM glucose + 10% FBS | RPMI 5 mM glucose + 10% dialyzed FBS
NOMO1 [5] | 433 | 438 | 462
P12-Ichikawa [4] | 410 | 406 | 398

Cc1cccc(-c2n[nH]cc2-c2ccc3ncccc3n2)n1
AUC of viability dose-response curve
Conditions | HPLM + 10% dialyzed FBS | RPMI 5 mM glucose + 10% FBS | RPMI 5 mM glucose + 10% dialyzed FBS
NOMO1 [5] | 447 | 458 | 430
SEM cells [6] | 459 | 449 | 451

CN1CCN2c3ccccc3Cc3ccccc3C2C1 (stereo not given)
AUC of viability dose-response curve
Conditions | NOMO1 [5] | P12-Ichikawa [4] | SEM cells [6]
HPLM + 10% dialyzed FBS | 433 | 453 | 467
RPMI 5 mM glucose + 10% FBS | 474 | 441 | 463
RPMI 5 mM glucose + 10% dialyzed FBS | 472 | 466 | 453
